According to patent US9963463B2, “Urea-substituted indanes as P38 map kinase inhibitors” (TORRENT PHARMACEUTICALS LIMITED, priority 2014, dated 2018):

target: T1, purified recombinant human p38 alpha MAPK (Homo sapiens, UniProt Q16539); test: Inhibition of p38 alpha MAPK activity, TR-FRET kinase assay; format: biochemical; conditions: Concentration 1 μM; read-out: P38α Inhibition
T1 construct: purchased Millipore, USA
Outline: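 Recombinant human p38α preincubated 15 min at RT with compound (0.5–1.0% DMSO), then 30 nM biotinylated GST-ATF2 and 100 μM ATP added for 60 min at RT. Stopped with EDTA; Eu-anti-phospho-ATF2 and APC-streptavidin detection, 60 min. % inhibition from 665/615 nm TR-FRET ratio.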

T1 sequence (Q16539 whole entry): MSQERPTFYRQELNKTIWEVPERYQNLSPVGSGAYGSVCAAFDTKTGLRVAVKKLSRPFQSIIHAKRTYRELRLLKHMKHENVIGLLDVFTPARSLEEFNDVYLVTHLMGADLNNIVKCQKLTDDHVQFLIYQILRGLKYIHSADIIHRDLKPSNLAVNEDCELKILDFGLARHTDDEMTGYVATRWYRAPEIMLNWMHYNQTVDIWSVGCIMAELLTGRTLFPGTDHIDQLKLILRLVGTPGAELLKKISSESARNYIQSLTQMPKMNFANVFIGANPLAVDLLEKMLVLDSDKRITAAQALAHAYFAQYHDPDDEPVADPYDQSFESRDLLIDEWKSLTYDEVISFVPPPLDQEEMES

Compound	inhibition at 1 µM [%]
COc1ccc(-n2nc(C(C)(C)C)cc2NC(=O)Nc2ccc(OCC(=O)N3CCn4c(nnc4C(F)(F)F)C3)c3c2CCC3)cc1Cl [Compound 53, 1-[3-tert-butyl-1-(3-chloro-4-methoxyphenyl)-1H-pyrazol-5-yl]-3-(7-{2-oxo-2-[3-(trifluoromethyl)-5,6-dihydro[1,2,4]triazolo[4,3-a]pyrazin-7(8H)-yl]ethoxy}-2,3-dihydro-1H-inden-4-yl)urea]	40 to 60
CC(C)(C)c1cc(NC(=O)Nc2ccc(OCC(=O)N3CCn4c(nnc4C(F)(F)F)C3)c3c2CCC3)n(-c2ccc(C3CCCCC3)cc2)n1 [Compound 3, 1-[3-tert-butyl-1-(4-cyclohexylphenyl)-1H-pyrazol-5-yl]-3-(7-{2-oxo-2-[3-(trifluoromethyl)-5,6-dihydro[1,2,4]triazolo[4,3-a]pyrazin-7(8H)-yl]ethoxy}-2,3-dihydro-1H-inden-4-yl)urea]	20 to 40
Cc1ccc(-n2nc(C(C)(C)C)cc2NC(=O)Nc2ccc(OCCCN3CCN(CC4CC4)C(=O)C3)c3c2CCC3)cc1 [Compound 28, 1-[3-tert-butyl-1-(4-methylphenyl)-1H-pyrazol-5-yl]-3-(7-{3-[4-(cyclopropylmethyl)-3-oxopiperazin-1-yl]propoxy}-2,3-dihydro-1H-inden-4-yl)urea]	80 to 100
Cc1ccc(-n2nc(C(C)(C)C)cc2NC(=O)Nc2ccc(OCCN3CCn4c(nnc4-c4ccc(O)cc4)C3)c3c2CCC3)cc1 [Compound 34, 1-[3-tert-butyl-1-(4-methylphenyl)-1H-pyrazol-5-yl]-3-(7-{2-[3-(4-hydroxyphenyl)-5,6-dihydro[1,2,4]triazolo[4,3-a]pyrazin-7(8H)-yl]ethoxy}-2,3-dihydro-1H-inden-4-yl)urea]	80 to 100
COc1cc(-n2nc(C(C)(C)C)cc2NC(=O)Nc2ccc(OCCN3CCN(CC4CC4)C(=O)C3)c3c2CCC3)cc(OC)c1OC [Compound 70, 1-[3-tert-butyl-1-(3,4,5-trimethoxyphenyl)-1H-pyrazol-5-yl]-3-(7-{2-[4-(cyclopropylmethyl)-3-oxopiperazin-1-yl]ethoxy}-2,3-dihydro-1H-inden-4-yl)urea]	40 to 60
Cc1ccc(-n2nc(C(C)(C)C)cc2NC(=O)Nc2ccc(OCCN3CCn4c(nnc4-c4ccc(O)cc4O)C3)c3c2CCC3)cc1 [Compound 37, 1-[3-tert-butyl-1-(4-methylphenyl)-1H-pyrazol-5-yl]-3-(7-{2-[3-(2,4-dihydroxyphenyl)-5,6-dihydro[1,2,4]triazolo[4,3-a]pyrazin-7(8H)-yl]ethoxy}-2,3-dihydro-1H-inden-4-yl)urea]	80 to 100
CCCSc1ccccc1-c1nnc2n1CCN(CCOc1ccc(NC(=O)Nc3cc(C(C)(C)C)nn3-c3ccc(C)cc3)c3c1CCC3)C2 [Compound 33, 1-[3-tert-butyl-1-(4-methylphenyl)-1H-pyrazol-5-yl]-3-[7-(2-{3-[2-(propylsulfanyl)phenyl]-5,6-dihydro[1,2,4]triazolo[4,3-a]pyrazin-7(8H)-yl}ethoxy)-2,3-dihydro-1H-inden-4-yl]urea]	80 to 100
Cc1ccc(-n2nc(C(C)(C)C)cc2NC(=O)Nc2ccc(OCCN3CCn4c(nnc4-c4cccc(O)c4)C3)c3c2CCC3)cc1 [Compound 36, 1-[3-tert-butyl-1-(4-methylphenyl)-1H-pyrazol-5-yl]-3-(7-{2-[3-(3-hydroxyphenyl)-5,6-dihydro[1,2,4]triazolo[4,3-a]pyrazin-7(8H)-yl]ethoxy}-2,3-dihydro-1H-inden-4-yl)urea]	80 to 100
COc1ccccc1-c1nnc2n1CCN(CCOc1ccc(NC(=O)Nc3cc(C(C)(C)C)nn3-c3ccc(C)cc3)c3c1CCC3)C2 [Compound 14, 1-[3-tert-butyl-1-(4-methylphenyl)-1H-pyrazol-5-yl]-3-(7-{2-[3-(2-methoxyphenyl)-5,6-dihydro[1,2,4]triazolo[4,3-a]pyrazin-7(8H)-yl]ethoxy}-2,3-dihydro-1H-inden-4-yl)urea]	80 to 100
Cc1ccc(-n2nc(C(C)(C)C)cc2NC(=O)Nc2ccc(OCCN3CCN(CCO)C(=O)C3)c3c2CCC3)cc1 [Compound 6, 1-[3-tert-butyl-1-(4-methylphenyl)-1H-pyrazol-5-yl]-3-(7-{2-[4-(2-hydroxyethyl)-3-oxopiperazin-1-yl]ethoxy}-2,3-dihydro-1H-inden-4-yl)urea]	80 to 100
Cc1ccc(-n2nc(C(C)(C)C)cc2NC(=O)Nc2ccc(OCC(=O)N3CCn4c(nnc4C(F)(F)F)C3)c3c2CCC3)cc1Cl [Compound 56, 1-[3-tert-butyl-1-(3-chloro-4-methylphenyl)-1H-pyrazol-5-yl]-3-(7-{2-oxo-2-[3-(trifluoromethyl)-5,6-dihydro[1,2,4]triazolo[4,3-a]pyrazin-7(8H)-yl]ethoxy}-2,3-dihydro-1H-inden-4-yl)urea]	40 to 60
COc1c(NC(=O)Nc2ccc(OCCN3CCn4c(nnc4-c4cccc5ccccc45)C3)c3c2CCC3)cc(C(C)(C)C)cc1NS(C)(=O)=O [Compound 74, N-(5-tert-butyl-2-methoxy-3-{[(7-{2-[3-(naphthalen-1-yl)-5,6-dihydro[1,2,4]triazolo[4,3-a]pyrazin-7(8H)-yl]ethoxy}-2,3-dihydro-1H-inden-4-yl)carbamoyl]amino}phenyl)methanesulfonamide]	60 to 80
COc1ccc(-n2nc(C(C)(C)C)cc2NC(=O)Nc2ccc(OCCN3CCN(CC4CC4)C(=O)C3)c3c2CCC3)cc1 [Compound 17, 1-[3-tert-butyl-1-(4-methoxyphenyl)-1H-pyrazol-5-yl]-3-(7-{2-[4-(cyclopropylmethyl)-3-oxopiperazin-1-yl]ethoxy}-2,3-dihydro-1H-inden-4-yl)urea]	60 to 80
Cc1ccc(-n2nc(C(C)(C)C)cc2NC(=O)Nc2ccc(OCCN3CCn4c(nnc4-c4ccccc4OCCN4CCOCC4)C3)c3c2CCC3)cc1 [Compound 20, 1-[3-tert-butyl-1-(4-methylphenyl)-1H-pyrazol-5-yl]-3-(7-{2-[3-{2-[2-(morpholin-4-yl)ethoxy]phenyl}-5,6-dihydro[1,2,4]triazolo[4,3-a]pyrazin-7(8H)-yl]ethoxy}-2,3-dihydro-1H-inden-4-yl)urea]	80 to 100
Cc1ccc(-n2nc(C(C)(C)C)cc2NC(=O)Nc2ccc(OCCN3CCn4c(nnc4-c4ccc(O)c(Cl)c4)C3)c3c2CCC3)cc1 [Compound 31, 1-[3-tert-butyl-1-(4-methylphenyl)-1H-pyrazol-5-yl]-3-(7-{2-[3-(3-chloro-4-hydroxyphenyl)-5,6-dihydro[1,2,4]triazolo[4,3-a]pyrazin-7(8H)-yl]ethoxy}-2,3-dihydro-1H-inden-4-yl)urea]	80 to 100
CC(C)(C)c1cc(NC(=O)Nc2ccc(OCCN3CCn4c(nnc4C4CCCCC4)C3)c3c2CCC3)n(-c2ccc(O)c(Cl)c2)n1 [Compound 65, 1-[3-tert-butyl-1-(3-chloro-4-hydroxyphenyl)-1H-pyrazol-5-yl]-3-{7-[2-(3-cyclohexyl-5,6-dihydro[1,2,4]triazolo[4,3-a]pyrazin-7(8H)-yl)ethoxy]-2,3-dihydro-1H-inden-4-yl}urea]	20 to 40
